Experimental findings from paper PMC8698333 (Biomedicines, 2021) are described below.

No end group written: not given here.

One test concerns the target T1, hKOR with Gα3 subunit (Homo sapiens, UniProt P41145).
T1 construct: alpha7 nicotinic receptor signal peptide (N); expressed in transfected cells; host or cells: HEK293, transient
As to the kind of experiment: TRUPATH (BRET) G-protein dissociation, Gα3 subunit. Type of test: cell-based. The conditions noted are these: mean ± SEM. Background: Bioluminescence resonance energy transfer reports proximity on the nanometre scale.

For test [1], the target named is T2, hKOR (β-arrestin recruitment) (Homo sapiens, UniProt P41145).
T2 construct: tTA (Tango cassette); expressed in transfected cells; host or cells: HEK293, transient
As to the kind of experiment: PRESTO-Tango β-arrestin recruitment assay. Particulars: SEM. Type of test: cell-based. A general note: Arrestin recruitment assays detect the binding of arrestin to an activated receptor.

Test [2] has as its target T3, human KOR receptors (hKOR) (Homo sapiens, UniProt P41145).
T3 construct: expressed in transfected cells
Briefly: [35S]GTPγS functional assay on hKOR-CHO cell membranes. The format is biochemical. Particulars: SEM. Background: Binding of GTPγS marks nucleotide exchange on a G protein.
Procedure: CHO cells stably transfected with human KOR receptors (hKOR-CHO) were courtesy of Prof. Liu-Chen (Temple University, Philadelphia, PA, USA). Cells were grown in Gibco™ Dulbecco’s Minimal Essential Medium (DMEM) supplemented with 10% FBS, Glutamax (100 μg/mL), penicillin/ streptomycin (100 μg/mL) and geneticin (G418, 400 μg/mL). […] Cell cultures were maintained in a Heracell™ 150i CO2 incubator at 37 °C and 5.0% CO2.
Functional assays were conducted on hKOR-CHO cell membranes. Membranes were prepared in 50 mM Tris-HCl buffer pH 7.7. Cells were harvested by scraping the plates with a rubber policeman and were then centrifuged at 500× g for 10 min. The cell pellet was resuspended in Tris-HCl, homogenized with a Dounce homogenizer and centrifuged at 27,000× g for 15 min. […] The protein concentration of the homogenate was determined by Biuret reaction (RotiQuant Universal, Carl Roth) and stored at −70 °C until use.
To perform the GTPγS assay, membrane homogenates (10 μg/reaction tube) were diluted in HEPES buffer (20 mM) together with 10 μM GDP and 0.05 nM [^35S]GTPγS (Perkin Elmer, MA, USA). […] Non-specific binding was determined using 10 μM unlabeled GTPγS (Sigma-Aldrich, Vienna, Austria). Samples were filtered over glass fiber filters (GF/B Whatman) and the bound radioactivity was measured by liquid scintillation counting as counts per minute (CPM).

A further test addresses T4, hKOR with Gα1 subunit (Homo sapiens, UniProt P41145).
T4 construct: alpha7 nicotinic receptor signal peptide (N); expressed in transfected cells; host or cells: HEK293, transient
As to the kind of experiment: TRUPATH (BRET) G-protein dissociation, Gα1 subunit. Type of test: cell-based. The conditions noted are these: SEM.

The target of another test is T5, hKOR with Gα2 subunit (Homo sapiens, UniProt P41145).
T5 construct: alpha7 nicotinic receptor signal peptide (N); expressed in transfected cells; host or cells: HEK293, transient
As to the kind of experiment: TRUPATH (BRET) G-protein dissociation, Gα2 subunit. The format is cell-based. The conditions noted are these: SEM.

The next test has as its target hKOR with GαoA subunit (Homo sapiens, UniProt P41145). Briefly: cell-based. Particulars: SEM.
Another test deals with T6, hKOR with GαoB subunit (Homo sapiens, UniProt P41145).
T6 construct: alpha7 nicotinic receptor signal peptide (N); expressed in transfected cells; host or cells: HEK293, transient
As to the kind of experiment: TRUPATH (BRET) G-protein dissociation, GαoB subunit. Type of test: cell-based. The conditions noted are these: SEM.

A further test deals with T7, hKOR with GαZ subunit (Homo sapiens, UniProt P41145).
T7 construct: alpha7 nicotinic receptor signal peptide (N); expressed in transfected cells; host or cells: HEK293, transient
Briefly: TRUPATH (BRET) G-protein dissociation, GαZ subunit. The format is cell-based. The conditions noted are these: SEM.

Setting [3] is: EC50, TRUPATH α3 (#, same cell batch), HEK293 with hKOR and Gα3, signal bias series marked #, performed on the same cell batch, n = 9.

T1 sequence (P41145 whole entry): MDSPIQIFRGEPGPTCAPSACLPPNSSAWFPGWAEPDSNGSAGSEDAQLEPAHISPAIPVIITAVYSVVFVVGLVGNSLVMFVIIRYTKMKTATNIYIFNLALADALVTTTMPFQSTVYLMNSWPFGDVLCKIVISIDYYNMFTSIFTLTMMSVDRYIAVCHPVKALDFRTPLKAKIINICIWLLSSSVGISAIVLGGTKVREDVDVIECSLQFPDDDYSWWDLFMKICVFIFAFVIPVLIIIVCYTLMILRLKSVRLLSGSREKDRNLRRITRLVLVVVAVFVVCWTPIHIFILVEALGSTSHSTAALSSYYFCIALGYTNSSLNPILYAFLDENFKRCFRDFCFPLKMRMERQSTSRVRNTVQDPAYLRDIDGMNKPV
T1 sequence (P08754 whole entry partner): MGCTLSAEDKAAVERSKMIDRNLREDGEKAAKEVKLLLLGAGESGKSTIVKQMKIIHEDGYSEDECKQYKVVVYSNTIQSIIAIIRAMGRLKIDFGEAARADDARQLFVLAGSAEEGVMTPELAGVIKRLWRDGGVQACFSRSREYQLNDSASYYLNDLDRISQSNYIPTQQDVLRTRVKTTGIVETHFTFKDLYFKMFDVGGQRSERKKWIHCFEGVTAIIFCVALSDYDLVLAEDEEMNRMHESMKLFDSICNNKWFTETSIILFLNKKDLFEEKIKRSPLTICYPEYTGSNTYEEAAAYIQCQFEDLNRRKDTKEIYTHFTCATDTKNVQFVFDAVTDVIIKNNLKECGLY
T1 sequence (P16520 whole entry partner): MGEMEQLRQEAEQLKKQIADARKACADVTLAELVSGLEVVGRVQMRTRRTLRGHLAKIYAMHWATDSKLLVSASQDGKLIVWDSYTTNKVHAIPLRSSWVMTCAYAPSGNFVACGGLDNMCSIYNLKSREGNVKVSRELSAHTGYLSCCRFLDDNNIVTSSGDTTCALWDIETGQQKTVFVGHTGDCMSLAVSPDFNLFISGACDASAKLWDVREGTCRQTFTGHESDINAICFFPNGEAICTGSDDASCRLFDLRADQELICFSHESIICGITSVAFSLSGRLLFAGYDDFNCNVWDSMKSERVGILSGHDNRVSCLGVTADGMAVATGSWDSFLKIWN
T1 sequence (O14610 1-66 partner limits assumed): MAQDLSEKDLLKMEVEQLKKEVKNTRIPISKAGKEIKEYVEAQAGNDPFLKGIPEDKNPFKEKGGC
T2 sequence (P41145 whole entry): as the sequence (P41145 whole entry) above
T2 sequence (P32121 whole entry partner): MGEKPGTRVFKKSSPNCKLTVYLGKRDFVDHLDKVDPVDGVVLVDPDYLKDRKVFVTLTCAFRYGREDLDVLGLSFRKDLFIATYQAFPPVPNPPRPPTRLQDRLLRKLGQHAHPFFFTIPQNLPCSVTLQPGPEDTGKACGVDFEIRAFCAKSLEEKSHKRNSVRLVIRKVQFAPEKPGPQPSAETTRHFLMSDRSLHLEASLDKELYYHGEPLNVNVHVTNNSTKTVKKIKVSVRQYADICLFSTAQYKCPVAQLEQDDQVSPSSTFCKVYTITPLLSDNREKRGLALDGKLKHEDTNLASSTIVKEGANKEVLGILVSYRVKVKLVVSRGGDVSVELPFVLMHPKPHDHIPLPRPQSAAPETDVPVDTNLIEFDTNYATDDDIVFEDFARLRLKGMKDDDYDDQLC
T4 sequence (P16520 whole entry): as the sequence (P16520 whole entry partner) above
T4 sequence (P63096 whole entry, further chain): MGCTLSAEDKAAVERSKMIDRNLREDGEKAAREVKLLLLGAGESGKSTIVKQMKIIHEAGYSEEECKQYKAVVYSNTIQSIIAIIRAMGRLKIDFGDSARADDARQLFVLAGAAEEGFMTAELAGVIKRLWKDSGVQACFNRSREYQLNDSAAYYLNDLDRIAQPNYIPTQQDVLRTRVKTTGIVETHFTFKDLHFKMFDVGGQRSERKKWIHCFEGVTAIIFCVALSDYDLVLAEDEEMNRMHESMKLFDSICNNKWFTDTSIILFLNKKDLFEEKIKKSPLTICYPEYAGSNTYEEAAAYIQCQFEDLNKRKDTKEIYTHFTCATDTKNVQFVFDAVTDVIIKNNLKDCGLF
T4 sequence (P41145 whole entry): as the sequence (P41145 whole entry) above
T4 sequence (O14610 1-66, further chain): as the sequence (O14610 1-66 partner limits assumed) above
Chain of hKOR with GαoA subunit (P16520 whole entry): as the sequence (P16520 whole entry partner) above
Chain of hKOR with GαoA subunit (P41145 whole entry): as the sequence (P41145 whole entry) above
Chain of hKOR with GαoA subunit (P09471 whole entry, further chain): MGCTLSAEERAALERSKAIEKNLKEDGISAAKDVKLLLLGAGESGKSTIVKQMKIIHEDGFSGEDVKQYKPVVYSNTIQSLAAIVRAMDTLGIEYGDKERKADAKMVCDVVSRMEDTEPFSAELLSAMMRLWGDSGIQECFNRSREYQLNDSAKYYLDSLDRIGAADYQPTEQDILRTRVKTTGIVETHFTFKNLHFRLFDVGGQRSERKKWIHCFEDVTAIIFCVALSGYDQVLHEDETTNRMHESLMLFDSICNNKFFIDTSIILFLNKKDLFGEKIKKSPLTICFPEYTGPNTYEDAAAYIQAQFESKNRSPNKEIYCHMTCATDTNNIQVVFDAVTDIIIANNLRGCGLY
Chain of hKOR with GαoA subunit (Q9UK08 1-67, further chain): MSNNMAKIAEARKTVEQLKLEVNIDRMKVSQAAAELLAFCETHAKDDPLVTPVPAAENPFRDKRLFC
T3 sequence (P41145 whole entry): as the sequence (P41145 whole entry) above
T7 sequence (P41145 whole entry): as above
T7 sequence (P19086 whole entry partner): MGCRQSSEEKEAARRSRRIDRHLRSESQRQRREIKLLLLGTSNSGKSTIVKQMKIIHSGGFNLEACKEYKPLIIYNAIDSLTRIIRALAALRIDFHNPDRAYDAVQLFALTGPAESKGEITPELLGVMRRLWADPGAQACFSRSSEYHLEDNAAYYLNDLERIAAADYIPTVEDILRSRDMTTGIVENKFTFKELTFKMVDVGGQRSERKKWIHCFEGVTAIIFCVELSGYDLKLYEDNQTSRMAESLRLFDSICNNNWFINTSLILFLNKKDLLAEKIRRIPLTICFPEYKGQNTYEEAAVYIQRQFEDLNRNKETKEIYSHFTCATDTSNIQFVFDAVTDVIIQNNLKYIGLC
T7 sequence (P16520 whole entry partner): as the sequence (P16520 whole entry partner) above
T7 sequence (P63211 1-71 partner limits assumed): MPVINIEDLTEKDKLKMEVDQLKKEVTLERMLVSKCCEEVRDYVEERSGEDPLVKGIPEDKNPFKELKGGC
T5 sequence (P41145 whole entry): as the sequence (P41145 whole entry) above
T5 sequence (P04899 whole entry partner): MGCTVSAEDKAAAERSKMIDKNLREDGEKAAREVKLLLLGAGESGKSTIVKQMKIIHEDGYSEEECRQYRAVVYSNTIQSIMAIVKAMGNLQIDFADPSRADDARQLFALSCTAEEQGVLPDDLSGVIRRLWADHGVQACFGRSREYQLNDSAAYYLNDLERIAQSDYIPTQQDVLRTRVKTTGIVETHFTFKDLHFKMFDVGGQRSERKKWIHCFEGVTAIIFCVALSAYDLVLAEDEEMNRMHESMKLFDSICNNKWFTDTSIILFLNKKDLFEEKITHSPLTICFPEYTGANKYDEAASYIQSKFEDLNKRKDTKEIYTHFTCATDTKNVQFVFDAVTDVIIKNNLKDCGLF
T5 sequence (P16520 whole entry partner): as the sequence (P16520 whole entry partner) above
T5 sequence (Q9UK08 1-67 partner limits assumed): as the sequence (Q9UK08 1-67, further chain) above
T6 sequence (P41145 whole entry): as the sequence (P41145 whole entry) above
T6 sequence (P09471 1-354 isoform P09471-2 partner): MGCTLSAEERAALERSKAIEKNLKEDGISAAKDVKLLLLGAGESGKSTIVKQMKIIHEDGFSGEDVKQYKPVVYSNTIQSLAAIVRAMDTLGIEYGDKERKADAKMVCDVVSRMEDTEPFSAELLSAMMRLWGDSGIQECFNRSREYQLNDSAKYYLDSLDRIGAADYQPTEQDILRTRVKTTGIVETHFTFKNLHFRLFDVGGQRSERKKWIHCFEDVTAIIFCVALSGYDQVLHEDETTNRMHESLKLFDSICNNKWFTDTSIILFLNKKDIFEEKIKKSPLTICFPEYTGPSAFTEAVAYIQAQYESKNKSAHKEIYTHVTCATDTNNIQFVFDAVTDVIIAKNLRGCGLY
T6 sequence (P16520 whole entry partner): as the sequence (P16520 whole entry partner) above
T6 sequence (Q9UK08 1-67 partner limits assumed): as the sequence (Q9UK08 1-67, further chain) above

By EC50 is commonly meant the concentration that produces a half-maximal response. With YGGFLRRICPKLKWDNQ [DynA_R9C], the values for the EC50 (on hKOR with Gα3 subunit (setting [3]); in test [1]) were 24 ± 9 nM and 88 ± 32 nM, respectively.

YGGFLWRIRPKLKWDNQ [DynA_R6W]: the 50% effective concentration (EC50) in test [2] was determined as 105 ± 23 nM; on hKOR with Gα1 subunit, 211 ± 36 nM; on hKOR with Gα2 subunit it was 78 ± 42 nM; on hKOR with Gα3 subunit (setting [3]), 133 ± 75 nM; at hKOR with Gα3 subunit (EC50, TRUPATH α3, HEK293 transiently transfected with hKOR and Gα3, 30 min, n = 6 (transducerome series)), 161 ± 51 nM; on hKOR with GαoA subunit it was 133 ± 80 nM. Further, the EC50 at hKOR with GαoB subunit came to 62 ± 15 nM; on hKOR with GαZ subunit, 27 ± 9 nM; in test [1] it was 670 ± 215 nM.

In the case of YGGFSRRIRPKLKWDNQ [DynA_L5S], the EC50 came to 78 ± 37 nM on hKOR with Gα3 subunit (setting [3]) and 236 ± 65 nM in test [1].
